# Results from the supplement of paper PMC10307832.
# What was measured:
# Test in all cases: relative viability (nuclei count vs DMSO), 5 days (fraction); higher = more cells survive
# HOP-62 = tested on: HOP-62
# Procedure, shortened: (§1)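 Lung cancer cell lines, seeded in 1536-well plates, were treated the following day by pin tool with a single drug or with five library-drug doses (not always all listed) in √10 steps on top of a fixed anchor-drug dose. Cells were fixed and nuclei stained in one step after 5 days, and nuclei were counted. Relative viability is the nuclei count for treated wells divided by that for vehicle wells, reported as medians of duplicate plates.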
# SK-LU-1 = tested on: SK-LU-1
# Procedure, shortened: as §1
# NCI-H460 = tested on: NCI-H460
# Procedure, shortened: as §1
# A-427 = tested on: A-427
# Procedure, shortened: as §1
# SW 1573 = tested on: SW 1573
# Procedure, shortened: as §1
# NCI-H647 = tested on: NCI-H647
# Procedure, shortened: as §1
# LXF-289 = tested on: LXF-289
# Procedure, shortened: as §1
# NCI-H1915 = tested on: NCI-H1915
# Procedure, shortened: as §1
# LC-2-ad = tested on: LC-2-ad
# Procedure, shortened: as §1
# NCI-H2126 = tested on: NCI-H2126
# Procedure, shortened: as §1
# NCI-H2347 = tested on: NCI-H2347
# Procedure, shortened: as §1
# NCI-H2342 = tested on: NCI-H2342
# Procedure, shortened: as §1
# LOU-NH91 = tested on: LOU-NH91
# Procedure, shortened: as §1
# NCI-H1755 = tested on: NCI-H1755
# Procedure, shortened: as §1
# NCI-H1975 = tested on: NCI-H1975
# Procedure, shortened: as §1
# NCI-H2228 = tested on: NCI-H2228
# Procedure, shortened: as §1
# RERF-LC-KJ = tested on: RERF-LC-KJ
# Procedure, shortened: as §1
# NCI-H358 = tested on: NCI-H358
# Procedure, shortened: as §1
# HCC-15 = tested on: HCC-15
# Procedure, shortened: as §1
# PC-3 [JPC-3] = tested on: PC-3 [JPC-3]
# Procedure, shortened: as §1
# HCC-78 = tested on: HCC-78
# Procedure, shortened: as §1
# NCI-H1734 = tested on: NCI-H1734
# Procedure, shortened: as §1
smiles,measurement,setting,value
O=C(O)c1ccc(-c2c[nH]c3ncc(-c4ccccc4)cc23)cc1C1CCCC1 + COc1cc2c(Oc3ccc(NC(=O)C4(C(=O)Nc5ccc(F)cc5)CC4)cc3F)ccnc2cc1OCCCN1CCOCC1 [Foretinib] (partner 0.25 µM),relative viability,HOP-62; first compound 0.04 µM,1.09
same,relative viability,HOP-62; first compound 0.1265 µM,1.21
same,relative viability,HOP-62; first compound 0.4 µM,1.01
same,relative viability,HOP-62; first compound 1.265 µM,0.815
same,relative viability,SK-LU-1; first compound 0.04 µM,0.782
same,relative viability,SK-LU-1; first compound 0.1265 µM,0.875
same,relative viability,SK-LU-1; first compound 0.4 µM,0.705
same,relative viability,SK-LU-1; first compound 1.265 µM,0.51
same,relative viability,NCI-H460; first compound 0.04 µM,0.993
same,relative viability,NCI-H460; first compound 0.1265 µM,1.14
same,relative viability,NCI-H460; first compound 0.4 µM,0.962
same,relative viability,NCI-H460; first compound 1.265 µM,0.917
same,relative viability,A-427; first compound 0.04 µM,0.994
same,relative viability,A-427; first compound 0.1265 µM,1.12
same,relative viability,A-427; first compound 0.4 µM,1.01
same,relative viability,A-427; first compound 1.265 µM,0.786
same,relative viability,SW 1573; first compound 0.04 µM,0.977
same,relative viability,SW 1573; first compound 0.1265 µM,0.901
same,relative viability,SW 1573; first compound 0.4 µM,0.902
same,relative viability,SW 1573; first compound 1.265 µM,0.791
same,relative viability,NCI-H647; first compound 0.04 µM,1.33
same,relative viability,NCI-H647; first compound 0.1265 µM,1.35
same,relative viability,NCI-H647; first compound 0.4 µM,1.14
same,relative viability,NCI-H647; first compound 1.265 µM,0.965
same,relative viability,LXF-289; first compound 0.04 µM,0.972
same,relative viability,LXF-289; first compound 0.1265 µM,0.939
same,relative viability,LXF-289; first compound 0.4 µM,0.867
same,relative viability,LXF-289; first compound 1.265 µM,0.543
same,relative viability,NCI-H1915; first compound 0.04 µM,1.13
same,relative viability,NCI-H1915; first compound 0.1265 µM,1.11
same,relative viability,NCI-H1915; first compound 0.4 µM,1.03
same,relative viability,NCI-H1915; first compound 1.265 µM,0.783
same,relative viability,LC-2-ad; first compound 0.04 µM,0.973
same,relative viability,LC-2-ad; first compound 0.1265 µM,0.935
same,relative viability,LC-2-ad; first compound 0.4 µM,0.798
same,relative viability,LC-2-ad; first compound 1.265 µM,0.702
same,relative viability,NCI-H2126; first compound 0.04 µM,1.25
same,relative viability,NCI-H2126; first compound 0.1265 µM,1.12
same,relative viability,NCI-H2126; first compound 0.4 µM,1.16
same,relative viability,NCI-H2126; first compound 1.265 µM,1.2
same,relative viability,NCI-H2347; first compound 0.04 µM,0.861
same,relative viability,NCI-H2347; first compound 0.1265 µM,0.783
same,relative viability,NCI-H2347; first compound 0.4 µM,1.01
same,relative viability,NCI-H2347; first compound 1.265 µM,0.803
same,relative viability,NCI-H2342; first compound 0.04 µM,1.03
same,relative viability,NCI-H2342; first compound 0.1265 µM,1.11
same,relative viability,NCI-H2342; first compound 0.4 µM,1.18
same,relative viability,NCI-H2342; first compound 1.265 µM,0.991
same,relative viability,LOU-NH91; first compound 0.04 µM,0.892
same,relative viability,LOU-NH91; first compound 0.1265 µM,1.03
same,relative viability,LOU-NH91; first compound 0.4 µM,0.927
same,relative viability,LOU-NH91; first compound 1.265 µM,0.781
same,relative viability,NCI-H1755; first compound 0.04 µM,0.913
same,relative viability,NCI-H1755; first compound 0.1265 µM,1.02
same,relative viability,NCI-H1755; first compound 0.4 µM,0.939
same,relative viability,NCI-H1755; first compound 1.265 µM,0.861
same,relative viability,NCI-H1975; first compound 0.04 µM,0.964
same,relative viability,NCI-H1975; first compound 0.1265 µM,0.941
same,relative viability,NCI-H1975; first compound 0.4 µM,0.985
same,relative viability,NCI-H1975; first compound 1.265 µM,0.883
same,relative viability,NCI-H2228; first compound 0.04 µM,0.783
same,relative viability,NCI-H2228; first compound 0.1265 µM,0.915
same,relative viability,NCI-H2228; first compound 0.4 µM,0.871
same,relative viability,NCI-H2228; first compound 1.265 µM,0.576
same,relative viability,RERF-LC-KJ; first compound 0.04 µM,0.86
same,relative viability,RERF-LC-KJ; first compound 0.1265 µM,0.865
same,relative viability,RERF-LC-KJ; first compound 0.4 µM,0.933
same,relative viability,RERF-LC-KJ; first compound 1.265 µM,0.837
same,relative viability,NCI-H358; first compound 0.04 µM,0.768
same,relative viability,NCI-H358; first compound 0.1265 µM,0.949
same,relative viability,NCI-H358; first compound 0.4 µM,0.619
same,relative viability,NCI-H358; first compound 1.265 µM,0.397
same,relative viability,HCC-15; first compound 0.04 µM,1.11
same,relative viability,HCC-15; first compound 0.1265 µM,1.04
same,relative viability,HCC-15; first compound 0.4 µM,0.92
same,relative viability,HCC-15; first compound 1.265 µM,0.678
same,relative viability,PC-3 [JPC-3]; first compound 0.04 µM,1
same,relative viability,PC-3 [JPC-3]; first compound 0.1265 µM,1.14
same,relative viability,PC-3 [JPC-3]; first compound 0.4 µM,0.978
same,relative viability,PC-3 [JPC-3]; first compound 1.265 µM,0.61
same,relative viability,HCC-78; first compound 0.1265 µM,0.584
same,relative viability,HCC-78; first compound 0.4 µM,0.524
same,relative viability,HCC-78; first compound 1.265 µM,0.531
same,relative viability,NCI-H1734; first compound 0.04 µM,0.859
same,relative viability,NCI-H1734; first compound 0.1265 µM,1.04
same,relative viability,NCI-H1734; first compound 0.4 µM,0.731
same,relative viability,NCI-H1734; first compound 1.265 µM,0.766
